Tested on: not given
Assay: not given
Details: not given

Going from `COc1ccccc1CNc1ccc2cc(Nc3nc(C)no3)ccc2n1` [Example 86, N2-(2-Methoxy-benzyl)-N6-(3-methyl-[1,2,4]oxadiazol-5-yl)-quinoline-2,6-diamine] to `COc1ccccc1CNc1ccc2cc(Nc3nnc(C)o3)ccc2n1` [Example 85, N2-(2-Methoxy-benzyl)-N6-(5-methyl-[1,3,4]oxadiazol-2-yl)-quinoline-2,6-diamine], the melting point rises from 175 °C to 183 °C.

Going from `COc1ccccc1CNc1ccc2cc(Nc3nc4cc(C)ccc4o3)ccc2n1` [Example 102, N2-(2-Methoxy-benzyl)-N6-(5-methyl-benzooxazol-2-yl)-quinoline-2,6-diamine] to `COc1ccccc1CNc1ccc2cc(Nc3ncccc3C)ccc2n1` [Example 91, N2-(2-Methoxy-benzyl)-N6-(3-methyl-pyridin-2-yl)-quinoline-2,6-diamine], the melting point falls from 220 °C to 163 °C.

Going from `COc1ccccc1CNc1ccc2cc(Nc3nc(C)cc(C)n3)ccc2n1` [Example 89, N6-(4,6-Dimethyl-pyrimidin-2-yl)-N2-(2-methoxy-benzyl)-quinoline-2,6-diamine] to `COc1ccccc1CNc1ccc2cc(Nc3ncccn3)ccc2n1` [Example 84, N2-(2-Methoxy-benzyl)-N6-pyrimidin-2-yl-quinoline-2,6-diamine], the melting point rises from 157.5 °C to 175 °C.

Compared with `COc1ccccc1CNc1ccc2cc(Nc3ncc(C(F)(F)F)o3)ccc2n1` [Example 99, N2-(2-Methoxy-benzyl)-N6-(5-trifluoromethyl-oxazol-2-yl)-quinoline-2,6-diamine], `COc1ccccc1CNc1ccc2cc(Nc3cccc(C(F)(F)F)n3)ccc2n1` [Example 101, N2-(2-Methoxy-benzyl)-N6-(6-trifluoromethyl-pyridin-2-yl)-quinoline-2,6-diamine] is lower in melting point: 166 °C for the first, 151 °C for the second.

Compared with `COc1ccccc1CNC(=O)c1ccc2nc(NCc3ccccc3OC)ccc2c1` [Example 76, 2-(2-Methoxy-benzylamino)-quinoline-6-carboxylic acid 2-methoxy-benzylamide], `COc1ccccc1CNc1ccc2cc(Nc3nnn(C(C)(C)C)n3)ccc2n1` [Example 95, N6-(2-tert-Butyl-2H-tetrazol-5-yl)-N2-(2-methoxy-benzyl)-quinoline-2,6-diamine] is lower in melting point: 217 °C for the first, 156 °C for the second.

Target: T1, recombinant human 5-HT5A receptor (Homo sapiens, UniProt P47898)
T1 construct: expressed in transfected cells; host or cells: HEK-EBNA (Human Embryonic Kidney-EBNA) cells, transient transfection; membranes
T1 sequence (P47898 whole entry): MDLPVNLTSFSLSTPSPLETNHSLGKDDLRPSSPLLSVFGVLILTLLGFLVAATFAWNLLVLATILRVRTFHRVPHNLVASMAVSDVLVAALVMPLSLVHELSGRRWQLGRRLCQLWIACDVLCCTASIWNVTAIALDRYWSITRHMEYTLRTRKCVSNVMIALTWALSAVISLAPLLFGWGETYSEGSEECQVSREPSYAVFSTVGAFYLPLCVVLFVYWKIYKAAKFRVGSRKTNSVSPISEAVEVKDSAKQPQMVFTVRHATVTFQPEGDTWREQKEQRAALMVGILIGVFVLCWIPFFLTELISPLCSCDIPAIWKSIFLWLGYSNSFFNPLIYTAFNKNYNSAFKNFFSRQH
Assay: [3H]LSD radioligand binding assay, membranes of HEK-EBNA cells transiently expressing the receptor
Details: [3H]LSD approx. 1 nM, 120 min room temperature, Ki from IC50 by Cheng-Prussoff equation, read-out: Ki (affinity towards the human 5-HT5A receptor)
Experimental: A [^3H] LSD radioligand binding assay was used to determine the affinity of the compounds for the recombinant human 5-HT5A receptor, in membranes from transiently (cDNA) expressed 5-HT5A receptors in Human Embryonic Kidney-EBNA (HEK-EBNA) cells.
Assay buffer consisted of Tris (50 mM) buffer containing 1 mM EGTA, 10 mM MgCl2 (pH 7.4) and 10 μM pargyline. The binding assay was carried out in 96-well-plates in the presence of [^3H]LSD (approximately 1 nM), approximately 2 μg/well of membrane protein, and 0.5 mg of Ysi-poly-1-lysine SPA beads in a final volume of 200 μl of buffer. Non-specific binding was defined using methiothepin 2 μM. Compounds were tested at 10 concentrations. All assays were conducted in duplicate and repeated at least two times. Assay plates were incubated for 120 min at room temperature before centrifugation. Bound ligand was determined using a Packard Topcount scintillation counter. IC50 values were calculated using a non-linear curve fitting program and Ki values calculated using the Cheng-Prussoff equation.

First: COc1ccc(OC(=O)Nc2ccc3nc(NCc4ccccc4OC)ccc3c2)cc1 [Example 80, [2-(2-Methoxy-benzylamino)-quinolin-6-yl]-carbamic acid 4-methoxy-phenyl ester]
Second: COc1ccccc1CNc1ccc2nc(NCc3ccccc3OC)ccc2c1 [Example 15, N2,N6-Bis-(2-methoxy-benzyl)-quinoline-2,6-diamine]
The Ki of the first is 5.1-fold higher: 87 nM for the first, 17 nM for the second. The second binds more tightly here.

Going from `COc1ccccc1CNc1ccc2cc(CCc3ccccc3)ccc2n1` [Example 4, (2-Methoxy-benzyl)-(6-phenethyl-quinolin-2-yl)-amine] to `COc1ccccc1CNc1ccc2cc(NCc3cccnc3)ccc2n1` [Example 6, N2-(2-Methoxy-benzyl)-N6-pyridin-3-ylmethyl-quinoline-2,6-diamine], the Ki falls from 104 nM to 27 nM (3.9-fold).

`COc1cc(F)ccc1CNc1cc(-c2ccccc2)c2cc(NCc3ccccc3)ccc2n1` [Example 36, N-6-Benzyl-N-2-(4-fluoro-2-methoxy-benzyl)-4-phenyl-quinoline-2,6-diamine] and `COc1ccccc1CNc1ccc2nc(NCc3ccccc3OC)cc(-c3ccccc3)c2c1` [Example 20, N2,N6-Bis-(2-methoxy-benzyl)-4-phenyl-quinoline-2,6-diamine] are within 1.5-fold of each other in Ki: 42 nM for the first, 30 nM for the second.

Going from `c1ccc(OCCNc2ccc3cc(NCc4cccnc4)ccc3n2)cc1` [Example 1, N2-(2-Phenoxy-ethyl)-N6-pyridin-3-ylmethyl-quinoline-2,6-diamine] to `COc1ccccc1CNc1ccc2cc(NS(=O)(=O)Nc3ccc(F)cc3)ccc2n1` [Example 81, N-(4-fluorophenyl)-N′-{2-[(2-methoxybenzyl)amino]quinolin-6-yl}sulfamide], the Ki rises from 22 nM to 40 nM (1.8-fold).

From US8399674B2, “Quinolines” (Hoffman-La Roche Inc., priority 2007, dated 2013)
